Data reported in ChEMBL document CHEMBL5034035, “Discovery of an Oxycyclohexyl Acid Lysophosphatidic Acid Receptor 1 (LPA1) Antagonist BMS-986278 for the Treatment of Pulmonary Fibrotic Diseases” (J Med Chem, 2021).
pIC50: −log10 of the molar value. Values after ≈ are worked out from the molar mass of the structure shown.

What was measured:
[1] = Protein binding in human plasma assessed as free fraction at 3 mg/kg, po or 1 mg/kg, iv measured up to 24 hrs by LC-MS/MS analysis; format: ADME, organism-based
[2] = Plasma clearance in CD-1 mouse at 3 mg/kg, po or 1 mg/kg, iv measured up to 24 hrs by LC-MS/MS analysis; format: ADME, organism-based
[3] = Plasma clearance in Sprague-Dawley rat at 3 mg/kg, po or 1 mg/kg, iv measured up to 24 hrs by LC-MS/MS analysis; format: ADME, organism-based
[4] = Plasma clearance in Cynomolgus monkey at 3 mg/kg, po or 1 mg/kg, iv measured up to 24 hrs by LC-MS/MS analysis; format: ADME, organism-based, Macaca fascicularis
[5] = Volume of distribution at steady state in CD-1 mouse at 3 mg/kg, po or 1 mg/kg, iv measured up to 24 hrs by LC-MS/MS analysis; format: ADME, organism-based; conditions: in vivo, read-out: Vdss
[6] = Volume of distribution at steady state in Sprague-Dawley rat at 3 mg/kg, po or 1 mg/kg, iv measured up to 24 hrs by LC-MS/MS analysis; format: ADME, organism-based; conditions: in vivo, read-out: Vdss
[7] = Volume of distribution at steady state in cynomolgus monkey at 3 mg/kg, po or 1 mg/kg, iv measured up to 24 hrs by LC-MS/MS analysis; format: ADME, organism-based, Macaca fascicularis; conditions: in vivo, read-out: Vdss
[8] = Oral bioavailability in cynomolgus monkey at 3 mg/kg measured up to 24 hrs by LC-MS/MS analysis; format: ADME, organism-based, Macaca fascicularis; conditions: in vivo
[9] = Elimination half life in Sprague-Dawley rat at 3 mg/kg, po or 1 mg/kg, iv measured up to 24 hrs by LC-MS/MS analysis; format: ADME, organism-based; conditions: in vivo, read-out: beta t1/2 (converted)
[10] = Protein binding in Cynomolgus monkey plasma assessed as free fraction at 3 mg/kg, po or 1 mg/kg, iv measured up to 24 hrs by LC-MS/MS analysis; format: ADME, organism-based, Macaca fascicularis
[11] = molecular target: T1, Solute carrier organic anion transporter family member 1B3 (Homo sapiens, UniProt Q9NPD5); assay: Inhibition of OATP1B3 (unknown origin); format: ADME
T1 sequence (Q9NPD5 whole entry): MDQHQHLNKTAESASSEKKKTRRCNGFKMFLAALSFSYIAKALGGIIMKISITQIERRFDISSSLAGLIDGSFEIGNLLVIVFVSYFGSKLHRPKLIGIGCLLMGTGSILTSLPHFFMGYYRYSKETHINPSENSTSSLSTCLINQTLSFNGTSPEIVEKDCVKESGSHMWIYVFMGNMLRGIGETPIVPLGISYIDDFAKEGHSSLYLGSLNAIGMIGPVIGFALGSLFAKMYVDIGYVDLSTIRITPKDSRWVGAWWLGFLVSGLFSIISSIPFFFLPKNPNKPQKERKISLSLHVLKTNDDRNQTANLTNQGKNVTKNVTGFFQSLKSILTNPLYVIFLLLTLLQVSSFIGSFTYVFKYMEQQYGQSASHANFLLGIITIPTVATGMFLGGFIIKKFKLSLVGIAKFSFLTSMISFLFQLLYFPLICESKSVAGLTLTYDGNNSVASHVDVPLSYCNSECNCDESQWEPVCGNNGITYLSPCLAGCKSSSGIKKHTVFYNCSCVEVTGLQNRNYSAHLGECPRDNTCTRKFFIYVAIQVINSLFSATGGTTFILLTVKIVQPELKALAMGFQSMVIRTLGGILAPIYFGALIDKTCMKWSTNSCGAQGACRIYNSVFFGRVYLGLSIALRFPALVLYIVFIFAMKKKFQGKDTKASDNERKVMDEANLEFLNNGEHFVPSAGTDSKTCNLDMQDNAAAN

[12] = molecular target: T2, ATP-binding cassette sub-family C member 4 (Homo sapiens, UniProt O15439); assay: Inhibition of MRP4 (unknown origin)
T2 sequence (O15439 whole entry): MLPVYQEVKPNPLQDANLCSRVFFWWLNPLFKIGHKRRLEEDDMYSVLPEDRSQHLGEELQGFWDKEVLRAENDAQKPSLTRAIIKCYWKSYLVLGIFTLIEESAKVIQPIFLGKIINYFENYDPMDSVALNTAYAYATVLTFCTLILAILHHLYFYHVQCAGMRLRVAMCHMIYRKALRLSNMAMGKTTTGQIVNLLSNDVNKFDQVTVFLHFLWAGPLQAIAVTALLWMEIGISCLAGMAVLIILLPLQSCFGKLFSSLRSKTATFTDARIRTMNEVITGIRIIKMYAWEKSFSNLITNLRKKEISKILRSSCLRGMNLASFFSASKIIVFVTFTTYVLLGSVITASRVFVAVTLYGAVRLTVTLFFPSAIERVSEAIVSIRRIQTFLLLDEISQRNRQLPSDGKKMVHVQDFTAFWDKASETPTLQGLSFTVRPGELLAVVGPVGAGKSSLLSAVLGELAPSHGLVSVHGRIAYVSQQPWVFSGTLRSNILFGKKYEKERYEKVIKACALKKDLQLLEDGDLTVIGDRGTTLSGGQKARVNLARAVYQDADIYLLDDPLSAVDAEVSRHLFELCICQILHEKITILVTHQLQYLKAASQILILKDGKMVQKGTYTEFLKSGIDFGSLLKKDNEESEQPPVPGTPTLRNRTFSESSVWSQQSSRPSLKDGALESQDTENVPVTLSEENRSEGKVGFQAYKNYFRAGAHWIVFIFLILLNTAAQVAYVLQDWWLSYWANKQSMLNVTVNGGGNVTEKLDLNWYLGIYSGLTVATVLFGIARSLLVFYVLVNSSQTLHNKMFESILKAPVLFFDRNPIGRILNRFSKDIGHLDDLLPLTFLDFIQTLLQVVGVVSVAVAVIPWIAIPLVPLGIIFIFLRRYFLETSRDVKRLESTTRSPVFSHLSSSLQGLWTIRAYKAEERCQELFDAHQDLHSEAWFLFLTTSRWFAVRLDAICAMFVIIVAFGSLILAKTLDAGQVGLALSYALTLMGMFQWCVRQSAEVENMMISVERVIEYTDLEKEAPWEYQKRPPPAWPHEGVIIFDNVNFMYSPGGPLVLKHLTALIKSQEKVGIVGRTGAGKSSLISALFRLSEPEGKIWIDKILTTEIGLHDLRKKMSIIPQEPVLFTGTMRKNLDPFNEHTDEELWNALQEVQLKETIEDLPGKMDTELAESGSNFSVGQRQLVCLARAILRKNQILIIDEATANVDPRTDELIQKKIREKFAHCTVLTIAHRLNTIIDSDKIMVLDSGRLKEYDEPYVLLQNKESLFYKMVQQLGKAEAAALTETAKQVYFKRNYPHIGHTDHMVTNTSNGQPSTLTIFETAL

[13] = molecular target: Cytochrome P450 2C19 (Homo sapiens, UniProt P33261); assay: Inhibition of CYP2C19 (unknown origin); format: ADME
Chain of Cytochrome P450 2C19 (P33261 whole entry): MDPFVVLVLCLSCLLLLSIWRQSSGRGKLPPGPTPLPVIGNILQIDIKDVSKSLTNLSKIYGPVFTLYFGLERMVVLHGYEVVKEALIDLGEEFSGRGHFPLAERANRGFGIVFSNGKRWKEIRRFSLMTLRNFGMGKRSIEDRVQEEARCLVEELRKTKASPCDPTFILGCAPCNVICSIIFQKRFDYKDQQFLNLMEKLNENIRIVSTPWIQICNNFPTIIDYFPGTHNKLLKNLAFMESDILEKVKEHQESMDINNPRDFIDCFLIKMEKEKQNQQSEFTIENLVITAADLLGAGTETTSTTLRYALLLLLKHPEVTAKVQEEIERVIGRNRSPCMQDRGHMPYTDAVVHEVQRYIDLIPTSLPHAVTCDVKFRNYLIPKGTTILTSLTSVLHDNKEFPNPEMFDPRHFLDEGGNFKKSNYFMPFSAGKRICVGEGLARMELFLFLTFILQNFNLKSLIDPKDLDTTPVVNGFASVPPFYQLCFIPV

[14] = Aqueous solubility of compound at pH 7.4; format: physicochemical
[15] = Drug metabolism in monkey hepatocytes assessed as formation of acyl glucuronides metabolites at 10 uM measured after 2 hrs by LC/UV/MS analysis; format: ADME, cell-based, Macaca mulatta, Hepatocyte; conditions: rhesus monkey
[16] = molecular target: Phosphatidylcholine translocator ABCB4 (Homo sapiens, UniProt P21439); assay: Inhibition of MDR3 (unknown origin); format: ADME
Chain of Phosphatidylcholine translocator ABCB4 (P21439 whole entry): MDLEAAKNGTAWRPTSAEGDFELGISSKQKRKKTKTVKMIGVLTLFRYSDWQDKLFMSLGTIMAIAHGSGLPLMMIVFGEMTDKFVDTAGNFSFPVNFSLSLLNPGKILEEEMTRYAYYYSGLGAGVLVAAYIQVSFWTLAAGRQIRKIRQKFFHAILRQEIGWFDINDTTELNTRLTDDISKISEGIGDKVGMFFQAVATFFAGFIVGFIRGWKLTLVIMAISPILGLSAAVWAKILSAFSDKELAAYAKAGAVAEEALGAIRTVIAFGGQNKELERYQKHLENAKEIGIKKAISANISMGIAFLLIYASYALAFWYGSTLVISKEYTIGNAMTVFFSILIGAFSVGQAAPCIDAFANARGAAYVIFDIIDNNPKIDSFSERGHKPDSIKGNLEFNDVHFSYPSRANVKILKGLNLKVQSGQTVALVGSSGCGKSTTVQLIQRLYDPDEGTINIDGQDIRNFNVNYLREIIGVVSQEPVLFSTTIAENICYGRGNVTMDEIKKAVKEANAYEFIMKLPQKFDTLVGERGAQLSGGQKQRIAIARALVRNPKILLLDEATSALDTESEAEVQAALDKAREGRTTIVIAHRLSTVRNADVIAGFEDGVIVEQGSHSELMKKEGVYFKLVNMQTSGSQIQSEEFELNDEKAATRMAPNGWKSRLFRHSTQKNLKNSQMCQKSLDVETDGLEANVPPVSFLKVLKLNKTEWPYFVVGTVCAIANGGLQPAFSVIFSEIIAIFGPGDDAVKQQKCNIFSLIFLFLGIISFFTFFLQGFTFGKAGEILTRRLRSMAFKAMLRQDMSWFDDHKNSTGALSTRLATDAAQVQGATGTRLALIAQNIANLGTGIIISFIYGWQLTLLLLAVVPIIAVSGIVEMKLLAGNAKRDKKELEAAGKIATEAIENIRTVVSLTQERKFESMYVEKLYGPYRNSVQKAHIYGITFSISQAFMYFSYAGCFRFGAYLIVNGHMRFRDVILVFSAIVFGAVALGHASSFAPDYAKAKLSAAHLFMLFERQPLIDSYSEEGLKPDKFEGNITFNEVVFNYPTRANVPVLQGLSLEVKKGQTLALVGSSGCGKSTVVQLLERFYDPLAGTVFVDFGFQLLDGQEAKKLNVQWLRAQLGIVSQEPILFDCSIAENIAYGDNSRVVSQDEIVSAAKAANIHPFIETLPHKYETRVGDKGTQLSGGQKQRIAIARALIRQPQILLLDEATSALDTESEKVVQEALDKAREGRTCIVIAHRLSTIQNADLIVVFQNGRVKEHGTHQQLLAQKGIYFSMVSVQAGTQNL

fraction unbound at 24 h [1] | clearance [2] [mL/min/kg] | clearance [3] [mL/min/kg] | clearance [4] [mL/min/kg] | Vd [5] [L/kg] | Vd [6] [L/kg] | Vd [7] [L/kg] | bioavailability [8] [%] | half-life [9] [min] | fraction unbound at 24 h [10] | pIC50 [11] | pIC50 [12] | pIC50 [13] | Drug metabolism [15] | Compound | solubility [14] [µg/mL] | pIC50 [16]
0.033 | 118 | 104 | 17 | 14.6 | 9 | 6.3 | 65 | 120 | 0.009 | 5.59 | 4.80 | < 4.40 | Metabolite_Detected | Cc1nc(-c2nnn(C)c2COC(=O)N(C)CC2CCC2)ccc1O[C@H]1CCC[C@H](C(=O)O)C1 | 705 (≈ 1500 µM) | 
0.056 | 37 | 15 | 2 | 5.5 | 3.5 | 1.6 | 79 | 270 | 0.008 | 5.00 | 4.33 | < 4.40 | Metabolite_Detected | CCCN(C)C(=O)OCc1c(-c2ccc(O[C@H]3CCC[C@H](C(=O)O)C3)c(C)n2)nnn1C [ADMILPARANT] |  | < 4.00

Compound | fraction unbound at 24 h [1] | clearance [2] [mL/min/kg] | clearance [3] [mL/min/kg] | clearance [4] [mL/min/kg] | Vd [5] [L/kg] | Vd [6] [L/kg] | Vd [7] [L/kg] | bioavailability [8] [%] | half-life [9] [min] | fraction unbound at 24 h [10] | pIC50 [11] | pIC50 [12] | pIC50 [13] | Drug metabolism [15] | solubility [14] [µg/mL] | pIC50 [16]
Cc1noc(-c2ccc(-c3ccc(C4(C(=O)O)CC4)cc3)cc2)c1NC(=O)O[C@H](C)c1ccccc1 [BMS-986020] | 0.002 |  |  |  |  |  |  |  |  |  | 6.24 | 5.21 | < 4.30 |  | 11 (≈ 22.8 µM) | 5.12
